Values quoted from earlier work, collected in patent US20230085607A1, “IVERMECTIN COMPOSITIONS FOR TREATMENT OF COVID-19” (priority 2021, published 2023).
Like-named read-outs stand apart in the source and are kept apart here.

Experiments:
[1] = test system: LPS-challenged macrophages; conditions: 0 to 50 μM, 6 h pre-incubation, LPS 24 h
[2] = test system: LPS-stimulated primary peritoneal macrophages
[3] = test system: mice with LPS-induced ARDS
[4] = test system: mice challenged with endotoxin (LPS O111:B4) or live Escherichia coli; conditions: for concentration of IL-1 α: controls 1187.0±278.64
[5] = test system: rats subjected to myocardial ischemia and reperfusion; conditions: 10 mg/kg intravenously then 10 mg/kg/h infusion
[6] = test system: mice with polymicrobial sepsis (CL2P); conditions: 10 mg/kg intraperitoneally, monitored 72 h after CL2P
[7] = test system: lipopolysaccharide-activated macrophages
[8] = test system: mice with experimental colitis
[9] = test system: mice with LPS-induced ARDS; remark: listed apart in the source
[10] = test system: mice with lethal endotoxemia or lethal sepsis
[11] = test system: rats with polymicrobial sepsis (CL2P); conditions: 10 mg/kg intraperitoneally at 1 and 6 h after CL2P and every 12 h
[12] = 50 mg/kg, LPS 5 mg/kg 3 days later
[13] = 50 and 100 mg/kg/day, compared with MD group

Compound: C[S+]([O-])CCCCN=C=S (centres unmarked) [sulforaphane, 1-isothiocyanato-4-(methylsulfinyl)-butane]
- direct reaction with cytokines or NO [1]: neither directly reacted
- expression of NO and cytokines [1]: able to prevent
- HO-1 expression ([2]; LPS-stimulated Nrf2 (+/+) primary peritoneal macrophages): significantly augmented
- LPS-stimulated mRNA expression, protein expression and production of TNF-alpha, IL-1beta, COX-2 and iNOS ([2]; Nrf2 (+/+) primary peritoneal macrophages, pretreatment): potently inhibited
- anti-inflammatory effect ([2]; Nrf2 (−/−) primary peritoneal macrophages): attenuated
- inducible nitric oxide synthase (iNOS) activity ([3]; 50 mg/kg): significantly inhibited
- nuclear factor-κB protein expression ([3]; 50 mg/kg): significantly decreased
- prostaglandin E2 (PGE2) production ([3]; 50 mg/kg): significantly inhibited
- serum levels of interleukin-6 (IL-6) ([3]; 50 mg/kg, ELISA): significantly decreased
- serum levels of tumor necrosis factor-α (TNF-α) ([3]; 50 mg/kg, ELISA): significantly decreased
- lactate dehydrogenase (LDH) activity [3, 12]: significantly decreased
- wet-to-dry ratio of the lungs [3, 12]: significantly decreased
- cyclooxygenase-2 (COX-2) protein expression ([3]; 50 mg/kg, western blot): significantly inhibited
- matrix metalloproteinase-9 (MMP-9) protein expression ([3]; 50 mg/kg, western blot): significantly inhibited
- Nrf2/antioxidant response element (ARE) pathway ([3]; pre-treatment): activated

Compound: CC1=CC(=O)C(C(C)C)=CC1=O [thymoquinone]
- lipopolysaccharide-induced inflammatory reactions (nitric oxide): suppressed effectively
- concentration of nitric oxide (nitric oxide; lipopolysaccharide-induced): reduced significantly
- concentration of IL-1 α ([4]; 0.75 mg/kg dose): 310.8 ± 70.93 pg/mL
- IL-10 levels ([4]; 0.75 mg/kg, controls 5505.2±333.96): 2885.0 ± 553.98 pg/mL
- concentration of IL-1 α ([4]; 1 mg/kg group): 428.3 ± 71.32 pg/mL
- levels of IL-2 ([4]; P=0.0851): relatively lower
- levels of TNF-α ([4]; P=0.1817): relatively lower
- mortality reduction ([4]; mice, sepsis): 80-90%
- renal and hepatic biomarker profiles ([4]; mice, sepsis): improved

Compound: epigallocatechin-3-gallate [EGCG]
- myeloperoxidase activity [5]: reduced
- myocardial damage [5]: reduced
- plasma IL-6 levels [5]: decreased
- plasma creatine phosphokinase levels [5]: decreased
- survival [6]: significantly improved
- disappearance of inhibitor kappaB from cytosolic fraction [7]: blocked
- NO production ([7]; cells cotreated with EGCG and LPS): Inhibition
- activation of nuclear factor-kappaB ([7]; electrophoretic mobility shift assay): blocked
- colonic tissue erosion [8, 13]: attenuation
- disease activity index (DAI) [8, 13]: decreased
- spleen index (SI) [8, 13]: decreased
- HIF-1α and STATS protein expression in the colon ([8]; mouse, in vivo): decreasing
- plasma levels of IL-10 and TGF-β1 ([8]; mouse, in vivo): increasing
- release of IL-6 and IL-17 ([8]; plasma): reduce
- changes in blood gases ([9]; 10 mg/kg ip): decreased
- expression of IκB-α ([9]; 10 mg/kg ip): increased
- expression of TLR-4, MyD88, TRIF and p-p65 in the lung tissue ([9]; 10 mg/kg ip): alleviated
- expression of TNF-α, IL-1β and IL-6 in the lung, serum and bronchoalveolar lavage fluid ([9]; 10 mg/kg ip): significantly decreased
- expression of p65 ([9]; 10 mg/kg ip): no influence
- histological lesions ([9]; 10 mg/kg ip): reduced
- myeloperoxidase (MPO) activity ([9]; 10 mg/kg ip): reduced
- wet-to-dry weight ratios ([9]; 10 mg/kg ip): reduced
- LPS-induced ARDS ([9]; 10 mg/kg ip 1 h before LPS 10 mg/kg ip): attenuated
- rescue from lethal sepsis ([10]; first dose 24 hours after cecal ligation and puncture): rescued
- protection against lethal endotoxemia ([10]; intraperitoneal administration): protected
- systemic accumulation of HMGB1, IL-6 and KC ([10]; mouse, in vivo): attenuation
- TNF-α-induced nuclear factor-κB (NF-κB) activity (macrophage foam cells): inhibition
- TNF-α-induced downregulation of ABCA1 and decrease in cholesterol efflux to apoA1 (macrophage foam cells; pretreatment): attenuated
- hypotension (mean arterial blood pressure) [11]: significantly improved
